Reference: ChEMBL document CHEMBL1201862, “PubChem BioAssay data set” (2004)
Calls of active or inactive are those of the source.

Tests used:
[1] = molecular target: T1, Short transient receptor potential channel 4 (Mus musculus, UniProt Q9QUQ5); assay: block of DAMGO-driven TRPC4 calcium entry – cell-based, HEK293 TRPC4/mu-opioid, Fluo-4 calcium, dose response (AID 434942); type: functional;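 further: potency of inhibitors blocking the TRPC4 calcium response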
T1 sequence (Q9QUQ5 whole entry): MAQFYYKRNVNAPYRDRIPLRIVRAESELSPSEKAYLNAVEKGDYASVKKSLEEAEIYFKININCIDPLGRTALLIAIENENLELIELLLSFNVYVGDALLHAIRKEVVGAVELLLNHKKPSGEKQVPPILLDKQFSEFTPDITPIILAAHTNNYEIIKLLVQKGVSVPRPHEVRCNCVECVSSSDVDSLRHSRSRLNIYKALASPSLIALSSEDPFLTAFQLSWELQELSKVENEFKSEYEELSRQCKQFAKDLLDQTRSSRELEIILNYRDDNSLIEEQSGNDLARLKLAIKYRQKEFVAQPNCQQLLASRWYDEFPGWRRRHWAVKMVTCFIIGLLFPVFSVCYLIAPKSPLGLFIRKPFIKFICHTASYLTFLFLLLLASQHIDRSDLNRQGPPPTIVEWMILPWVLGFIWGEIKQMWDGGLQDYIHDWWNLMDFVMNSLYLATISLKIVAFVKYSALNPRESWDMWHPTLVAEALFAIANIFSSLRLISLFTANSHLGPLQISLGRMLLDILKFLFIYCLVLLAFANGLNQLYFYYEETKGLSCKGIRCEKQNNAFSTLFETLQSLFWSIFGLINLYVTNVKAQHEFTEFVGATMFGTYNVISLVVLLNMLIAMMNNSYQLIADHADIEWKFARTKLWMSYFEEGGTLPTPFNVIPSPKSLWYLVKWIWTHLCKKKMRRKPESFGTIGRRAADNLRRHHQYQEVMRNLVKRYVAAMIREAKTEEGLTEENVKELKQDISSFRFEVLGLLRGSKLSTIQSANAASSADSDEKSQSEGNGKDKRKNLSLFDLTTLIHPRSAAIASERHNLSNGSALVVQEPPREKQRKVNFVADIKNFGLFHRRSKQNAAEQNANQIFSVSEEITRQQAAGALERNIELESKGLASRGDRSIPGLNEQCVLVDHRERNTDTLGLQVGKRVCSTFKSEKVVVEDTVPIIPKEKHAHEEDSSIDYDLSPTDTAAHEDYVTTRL

[2] = luciferase reporter signal suppression in cells – H4 neuroglioma cells, luminescence, dose response (AID 1990); type: functional, cell-based
[3] = Luminescence Cell-Based Dose Response HTS to Identify Inhibitors of 5'UTR Stem-Loop Driven Prion Protein mRNA Translation in H4 Neuroglioblastoma Cells. [Related pubchem assays: 1827 (Project Summary), 1813 (Primary HTS)]; type: functional
[4] = alpha-synuclein stem-loop luciferase translation blockers – H4 neuroglioma cells, luminescence, confirmation (AID 1988); type: functional, cell-based
[5] = HEK-293T cell viability reduction – luminescence, B-cell screen hits, cytotoxicity control for BCR NF-kB inhibitor project, dose response (AID 489021); type: functional, cell-based;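 further: HEK-293T cells carrying an NF-kB luciferase reporter; cells exposed to compound for about 14 hours before viability readout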
[6] = molecular target: T2, Heat shock factor protein 1 (Mus musculus, UniProt P38532); assay: decrease of HSF1-responsive luciferase luminescence – cell-based, NIH3T3, dose retest, confirmation (AID 2382); type: functional;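 further: NIH3T3 fibroblasts with HSF1-driven luciferase reporter stressed by proteasome inhibitor MG132; luminescence from HSF1-driven luciferase expression after 8 hours of MG132 stress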
T2 sequence (P38532 whole entry): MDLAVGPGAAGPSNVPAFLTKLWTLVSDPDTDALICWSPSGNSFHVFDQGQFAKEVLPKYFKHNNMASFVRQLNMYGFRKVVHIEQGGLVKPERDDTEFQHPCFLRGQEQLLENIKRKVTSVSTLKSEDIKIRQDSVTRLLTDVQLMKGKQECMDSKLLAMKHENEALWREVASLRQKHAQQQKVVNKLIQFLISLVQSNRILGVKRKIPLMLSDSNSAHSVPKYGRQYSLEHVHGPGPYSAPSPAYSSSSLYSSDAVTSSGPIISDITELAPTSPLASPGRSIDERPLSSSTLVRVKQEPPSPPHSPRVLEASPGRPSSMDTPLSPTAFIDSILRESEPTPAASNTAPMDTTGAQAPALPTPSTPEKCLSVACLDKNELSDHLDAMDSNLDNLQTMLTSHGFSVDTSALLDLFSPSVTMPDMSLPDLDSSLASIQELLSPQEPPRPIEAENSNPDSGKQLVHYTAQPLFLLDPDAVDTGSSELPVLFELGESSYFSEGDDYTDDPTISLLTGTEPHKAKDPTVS

[7] = molecular target: T2, Heat shock factor protein 1; assay: enhancement of HSF1-driven luciferase signal – cell-based, NIH3T3, luminescence, dose retest, confirmation (AID 435004); type: functional;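 further: stress induced by proteasome inhibitor MG132 added 30 min after compound; luciferase reporter driven by HSF1 response element in NIH3T3 cells; actives raise luminescence as potentiators of the MG132 stress response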
Aminopeptidase N = molecular target: T3, Aminopeptidase N (Plasmodium falciparum FcB1/Columbia, UniProt O96935); assay: malaria alanyl aminopeptidase activity blockers – biochemical, fluorogenic H-Leu-NHMec substrate, 1536-well (AID 1445); set-up: species or system Plasmodium falciparum 3D7, 3D7
T3 sequence (O96935 whole entry): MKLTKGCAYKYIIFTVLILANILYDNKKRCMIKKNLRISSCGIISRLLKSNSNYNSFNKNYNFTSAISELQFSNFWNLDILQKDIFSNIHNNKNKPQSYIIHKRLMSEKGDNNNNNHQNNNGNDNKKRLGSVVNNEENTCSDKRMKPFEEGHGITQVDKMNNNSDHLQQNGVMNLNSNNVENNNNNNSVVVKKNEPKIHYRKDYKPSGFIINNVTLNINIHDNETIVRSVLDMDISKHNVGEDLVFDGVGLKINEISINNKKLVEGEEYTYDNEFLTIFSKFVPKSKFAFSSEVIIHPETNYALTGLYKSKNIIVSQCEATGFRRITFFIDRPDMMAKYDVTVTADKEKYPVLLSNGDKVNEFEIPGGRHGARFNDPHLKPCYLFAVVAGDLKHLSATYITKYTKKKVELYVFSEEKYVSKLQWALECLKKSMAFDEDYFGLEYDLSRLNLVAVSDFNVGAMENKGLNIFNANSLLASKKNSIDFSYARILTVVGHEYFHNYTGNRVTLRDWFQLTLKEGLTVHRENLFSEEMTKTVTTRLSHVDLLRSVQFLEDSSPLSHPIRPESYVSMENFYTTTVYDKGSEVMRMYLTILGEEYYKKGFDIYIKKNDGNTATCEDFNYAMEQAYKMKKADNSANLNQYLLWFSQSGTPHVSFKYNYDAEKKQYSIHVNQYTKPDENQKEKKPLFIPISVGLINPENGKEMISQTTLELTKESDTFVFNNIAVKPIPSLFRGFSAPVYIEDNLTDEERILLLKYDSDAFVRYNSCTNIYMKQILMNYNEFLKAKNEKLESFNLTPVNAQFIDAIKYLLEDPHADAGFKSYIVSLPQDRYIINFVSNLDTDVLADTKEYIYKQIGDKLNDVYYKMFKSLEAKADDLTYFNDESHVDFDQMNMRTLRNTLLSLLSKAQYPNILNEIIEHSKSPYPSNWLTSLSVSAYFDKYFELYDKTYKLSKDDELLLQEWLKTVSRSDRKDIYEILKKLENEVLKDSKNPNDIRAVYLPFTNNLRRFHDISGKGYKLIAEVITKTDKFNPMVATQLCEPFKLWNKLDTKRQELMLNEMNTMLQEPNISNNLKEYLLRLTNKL

[8] = molecular target: T4, RNA-binding protein pos-1 (Caenorhabditis elegans, UniProt G5EF15); assay: disruptors of C. elegans POS-1 RNA interaction – biochemical, fluorescence polarization, dose response (AID 1964);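 further: purified POS-1 fused to maltose binding protein made in E. coli; potency of compounds blocking POS-1 binding to fluorescent RNA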
T4 sequence (G5EF15 whole entry): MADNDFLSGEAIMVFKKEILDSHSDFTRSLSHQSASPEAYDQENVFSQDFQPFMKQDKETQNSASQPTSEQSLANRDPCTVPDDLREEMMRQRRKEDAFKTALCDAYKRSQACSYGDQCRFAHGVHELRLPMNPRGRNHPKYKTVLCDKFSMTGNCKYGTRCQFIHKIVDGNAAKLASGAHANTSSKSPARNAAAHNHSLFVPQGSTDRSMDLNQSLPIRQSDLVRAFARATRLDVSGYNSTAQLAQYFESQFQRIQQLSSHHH

[9] = molecular target: T5, Zinc finger protein mex-5 (Caenorhabditis elegans, UniProt Q9XUB2); assay: potency of MEX-5 RNA-binding blockers – biochemical, C. elegans, fluorescence polarization, dose response (AID 1960)
T5 sequence (Q9XUB2 whole entry): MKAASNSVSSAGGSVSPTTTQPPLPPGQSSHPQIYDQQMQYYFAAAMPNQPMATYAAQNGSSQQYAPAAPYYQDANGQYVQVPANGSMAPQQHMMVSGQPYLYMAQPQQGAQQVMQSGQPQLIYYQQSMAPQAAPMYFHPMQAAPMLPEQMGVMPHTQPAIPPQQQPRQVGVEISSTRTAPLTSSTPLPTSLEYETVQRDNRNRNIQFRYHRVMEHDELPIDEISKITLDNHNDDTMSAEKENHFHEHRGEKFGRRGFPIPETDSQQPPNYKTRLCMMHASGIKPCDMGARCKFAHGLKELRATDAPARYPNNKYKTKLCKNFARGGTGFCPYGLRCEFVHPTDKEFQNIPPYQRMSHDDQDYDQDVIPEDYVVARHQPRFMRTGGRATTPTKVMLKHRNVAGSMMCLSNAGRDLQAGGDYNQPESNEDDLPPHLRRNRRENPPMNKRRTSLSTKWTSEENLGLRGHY

[10] = molecular target: T6, Ubiquitin-conjugating enzyme E2 N (Homo sapiens, UniProt P61088); type: functional;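 further: Dose-response confirmation in a TR-FRET assay detecting UBC13-driven polyubiquitin chain formation, inhibition measured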
T6 sequence (P61088 whole entry): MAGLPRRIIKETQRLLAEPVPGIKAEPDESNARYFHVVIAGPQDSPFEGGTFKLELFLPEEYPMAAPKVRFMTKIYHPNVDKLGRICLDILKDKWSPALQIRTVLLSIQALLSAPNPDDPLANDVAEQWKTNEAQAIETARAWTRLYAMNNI

[11] = molecular target: T7, Calpain-2 catalytic subunit (Sus scrofa, UniProt P43367); assay: m-calpain protease blockers, concentration series – biochemical, fluorogenic peptide substrate, dose response (AID 1420); type: functional
T7 sequence (P43367 whole entry): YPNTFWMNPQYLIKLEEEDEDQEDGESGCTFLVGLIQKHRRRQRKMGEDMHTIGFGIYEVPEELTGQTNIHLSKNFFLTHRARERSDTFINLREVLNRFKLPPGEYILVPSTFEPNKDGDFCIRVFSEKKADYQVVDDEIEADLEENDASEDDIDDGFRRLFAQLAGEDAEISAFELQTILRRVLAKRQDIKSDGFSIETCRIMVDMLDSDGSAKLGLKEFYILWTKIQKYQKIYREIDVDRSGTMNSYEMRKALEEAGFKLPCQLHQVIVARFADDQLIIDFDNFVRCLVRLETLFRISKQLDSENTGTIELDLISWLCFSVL

[12] = NIH-3T3 fibroblast cytotoxicity, dose response, cytotoxicity control, cell-based, fluorescence, Alamar Blue, secondary assay (AID 2327); type: functional;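 further: NIH-3T3 mouse fibroblasts cultured with fluconazole at 8 µg/mL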
[13] = Trypanosoma cruzi growth suppression in host cells – NIH3T3 host cells, beta-gal luminescence, confirmation (AID 2044); type: functional, cell-based;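 further: intracellular parasites grown in NIH/3T3 mouse fibroblasts as host cells; luminescent beta-galactosidase reporter signal from transgenic T. cruzi replicating inside host cells; inhibitors lower the luminescence signal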
[14] = NIH3T3 cell viability loss – ATP luminescence, mouse fibroblasts, counter-screen, dose response (AID 2010); type: functional, cell-based;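 further: cells exposed to compound for about 90 hours before reading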

With O=C(COC(=O)c1c(Cl)cccc1Cl)Nc1ccccc1Br the EC50 [1] was 1.33 µM (active).

For Cc1cccc(C(=O)Nc2ccc(CC(=O)O)cc2)c1, the EC50 [2] was 12.9 µM (active), the EC50 [3] was 16.9 µM (active) and the EC50 [4] was 28.5 µM (active). For the same compound, the IC50 [5] was > 80 µM (inactive).

In the case of O=C(CCCc1nc(-c2ccccc2Cl)no1)NC1CCCC1, the EC50 [2] is reported as 0.822 µM (active), the EC50 [3] is reported as 5.93 µM (active) and the EC50 [6] is reported as > 195 µM (not active). The EC50 [4] was 0.606 µM (active) and the IC50 [5] was > 80 µM (inactive).

With COc1ccc(/C=C2\SC(=S)N(CCC(=O)Nc3cccc(O)c3)C2=O)cc1 the EC50 [7] was 58.8 µM (active) and the IC50 [5] was > 80 µM (inactive).

With CN1C(=O)S/C(=C/c2cccn2-c2cccc(C(=O)O)c2)C1=O the IC50 (Aminopeptidase N) was 84.3 µM (active), the EC50 [8] was > 300 µM (not active) and the EC50 [9] was > 300 µM (not active).

For O=C(CCCN1C(=O)/C(=C/c2ccccc2Cl)SC1=S)NNC(=O)c1ccc(Cl)cc1, the IC50 [10] was > 20 µM (inactive) and the IC50 [5] was > 80 µM (inactive).

With CC1CCN(CCCOc2ccc(OCc3ccccc3)cc2)CC1 the EC50 [1] was 0.531 µM (active).

With COc1ncnc2sc3c(c12)CCCC3 the EC50 [1] was 5.96 µM (active).

In the case of C#Cc1ccc(CN2CCCC(C(=O)Nc3ccccc3Oc3cccnc3)C2)cc1 (stereo not drawn), the EC50 [1] is reported as 1.68 µM (active).

With CCN(CC)c1ncnc2scc(C3COc4ccccc4O3)c12 (stereo not drawn) the IC50 [11] was 10.3 µM (not active) and the EC50 [1] was 5.31 µM (active).

In the case of NC(=O)C1CCN(C(=O)COc2ccc3ccccc3c2Br)CC1, the IC50 [5] is reported as > 80 µM (inactive).

In the case of Cc1c(CCOC(=O)CC23CC4CC(CC(C4)C2)C3)sc[n+]1Cc1ccccc1, the EC50 [12] is reported as > 160 µM (inactive) and the EC50 [1] is reported as 5.96 µM (active).

With Cc1cccc2cc(CN(CCCN(C)C)C(S)=NCCc3ccccc3)c(O)nc12 the EC50 [13] was 0.69 µM (active), the EC50 [14] was > 30 µM (not active) and the EC50 [1] was 4.22 µM (active).
